Like-named read-outs stand apart in the source and are kept apart here.
Key:
[1] = Cytotoxicity, MTT colorimetric test; format: cell-based, human; details: human
Protocol: (§1) Steroidal derivatives’ cytotoxicity regarding the HepG2-A16 cell line was evaluated by colorimetric test using 3-(4,5-dimethylthiazolyl-2)-2,5-diphenyltetrazolium bromide (MTT), as described by Mosmann [28]. […] An aliquot of each derivative dilution (100 μL, 1,000, 100, 10 and 1 μg/mL) was then added to the wells in triplicate. […] The DMSO diluent agent was evaluated in complete medium and negative controls (untreated cells) were included. Absorbance was measured at 550 nm and statistical Prism software version 5.0 (GraphPad Software Inc., La Jolla, CA, USA) was used for calculating toxic concentration (CC50). Amphotericin B was used as positive control in this assay.

[2] = tested on: Plasmodium falciparum NF-54 strain; test: In vitro antiplasmodial activity, [3H]hypoxanthine incorporation, NF-54 strain; format: cell-based; details: 48 h, read-out: IC50 μM ± SD NF-54
Protocol: (§2) A 10 mg/mL stock solution was prepared. […] A 50 μL sample was extracted from this solution and adjusted to 1,000 μL with RPMI-1640 without hypoxanthine until a final 500 μg/mL concentration was reached. The P. falciparum FcB-2 (Colombia) and NF54 (The Netherlands) strains were used for assessing anti-malarial activity.
(§3) Trager and Jensen’s method was used for culturing strains [24, 25]. The methods described by Desjardins et al. [26] were used for evaluating the structural analogs’ in vitro antiplasmodial activity, with some modifications. […] 1.0 µCi/mL of [3H] hypoxanthine (MP Biomedicals, Santa Ana, CA, USA) was added to each well and the plates were then incubated for 48 h at 37 °C in 5% CO2, 5% O2 in a balanced N2 atmosphere. Parasite DNA was harvested and radioactivity was determined by automatic TDCR liquid scintillation counter plate (Chameleon, Hidex Oy, Finland). Experiments were repeated twice with two or three replicates each. A nonlinear regression sigmoidal dose-response (variable slope) model was used to estimate concentration inhibiting 50% growth (IC50) values for each derivative.

[3] = tested on: Plasmodium falciparum FCB-2 (chloroquine-resistant) strain; test: In vitro antiplasmodial activity, [3H]hypoxanthine incorporation, FCB-2 strain; format: cell-based; details: for IC50: Plasmodium falciparum; for antiplasmodial activity (in words): P. falciparum FCB-2 and NF-54 strains, compared to diosgenone or parent; for RI (resistance index): IC50 FCB-2 (resistant strain)/IC50 NF-54 (sensitive strain)
Protocol: as §2, §3

[4] = tested on: Plasmodium berghei (ANKA strain); test: Peters' 4-day suppressive test in P. berghei-infected mice; format: in vivo, Plasmodium berghei in Balb/C mice
Protocol: Antimalarial activity was expressed as the percentage of parasite multiplication inhibition.
Antimalarial activity was assessed in vivo in the P. berghei rodent malaria model according to Peters’ 4-day suppressive test in P. berghei-infected (ANKA strain), 5–6 week-old Balb/C mice (males and females) weighing 23 ± 5 g; parasitemia kinetics were evaluated following treatment [2]. […] The donor mice were anesthetized with a 5 mg/kg xylazine and 50 mg/kg ketamine cocktail; blood was then collected via intracardiac route and 100 uL of 5 × 10^6 P. berghei ANKA-parasitised parasitized erythrocytes per experimental mouse were inoculated. Mouse infection was checked one day later by thin smear blood test and Giemsa staining.

[5] = tested on: HepG2-A16 human hepatoma cells; test: Cytotoxicity, MTT colorimetric test; format: cell-based; details: for SI (selectivity index): CC50 HepG2/IC50 parasite FCB-2
Protocol: as §1

[6] = HepG2-A16 human hepatoma cells, HepG2-A16 cells, MTT, 48 h, read-out: CC50
[7] = 48 h, read-out: IC50 μM ± SD FCB-2
[8] = P. falciparum NF-54 chloroquine-sensitive strain
[9] = HepG2-A16 cells, MTT, 48 h, read-out: CC50
[10] = 48 h, P. falciparum FCB-2 chloroquine-resistant strain, 48 h, read-out: IC50 μM ± SD FCB-2

SMILES	IC50 [2, 8]	antiplasmodial activity (in words) [3]	IC50 [3, 10]	SI (selectivity index) [5]	RI (resistance index) [3]	melting point	CC50 at 48 h [1]	also measured
C[C@@H]1[C@H](O)[C@@H](C)/C=C/C=C/C=C/C=C/C=C/C=C/C=C/[C@H](O[C@@H]2O[C@H](C)[C@@H](O)[C@H](N)[C@@H]2O)C[C@@H]2O[C@](O)(C[C@@H](O)C[C@@H](O)[C@H](O)CC[C@@H](O)C[C@@H](O)CC(=O)O[C@H]1C)C[C@H](O)[C@H]2C(=O)O [AF-B, amphotericin B, reference compound]	–	–	–	–	–	–	–	CC50 at 48 h [1, 6]: 39.6 µM
CCN(CC)CCCC(C)Nc1ccnc2cc(Cl)ccc12 (stereo not drawn) [CQ, chloroquine, reference compound]	–	–	–	–	–	–	–	IC50 [2]: 0.02 ± 0.005 µM; IC50 [3, 7]: 0.157 ± 0.01 µM; IC50 ([3]; read-out: IC50 in the FCB-2 strain): 0.158 µM; reduction of parasitemia ([4]; 5 mg/kg oral, second day of treatment): 100.0%
C[C@@H]1CC[C@@]2(OC1)O[C@H]1C[C@H]3[C@@H]4CC=C5C[C@@H](O)CC[C@]5(C)[C@H]4CC[C@]3(C)[C@H]1[C@@H]2C [Compound 1, (25R)-5-spirosten-3β-ol, reference compound]	> 482 µM	lacked antiplasmodial activity	> 482 µM	–	–	–	–	CC50 at 48 h [1, 9]: 1110 µM
CC(=O)[C@H]1CC[C@H]2[C@@H]3CCC4=CC(=O)CC[C@]4(C)[C@H]3CC[C@]12C [Compound 5, 4-Pregnene-3,20-dione, reference compound]	25.4 ± 1.6 µM	displayed antiplasmodial activity	38.2 ± 1.2 µM	5.0	1.5	–	–	CC50 at 48 h [1, 9]: 193 µM
CC(=O)[C@@]1(O)CC[C@H]2[C@@H]3CCC4=CC(=O)CC[C@]4(C)[C@H]3CC[C@@]21C [Compound 6, 17-hydroxy-4-pregnene-3,20-dione, reference compound]	–	inactive	–	–	1.0	–	–	IC50 [2]: > 303 µM; CC50 at 48 h [1, 6]: > 1140 µM; IC50 ([3]; 48 h, read-out: IC50 μM ± SD FCB-2, P. falciparum FCB-2 chloroquine-resistant strain, 48 h): > 303 µM
CC1=CC[C@@]2(C)C(=C1)CC[C@H]1[C@@H]3C[C@@H]4O[C@]5(CC[C@@H](C)CO5)[C@@H](C)[C@@H]4[C@@]3(C)CC[C@@H]12 [Compound 7, (25R)-3-Methyl-spirostan-2,4-diene]	34.6 ± 3.3 µM	marginal activity compared to diosgenone	70.4 ± 5.5 µM	3.1	2.0	172 to 174 °C	217 µM	–
C[C@@H]1CC[C@@]2(OC1)O[C@H]1C[C@H]3[C@@H]4CCC5=CC(O)(Cc6ccccc6)CC[C@]5(C)[C@H]4CC[C@]3(C)[C@H]1[C@@H]2C (stereo partly drawn) [Compound 8, (25R)-3-Benzyl-spirostan-4-en-3-ol]	> 396 µM	inactive against both P. falciparum strains	> 396 µM	–	–	203 to 205 °C	> 1980 µM	–
Cc1ccc(S(=O)(=O)NN=C2C=C3CCC4C(CCC5(C)C4CC4OC6(CCC(C)CO6)C(C)C45)C3(C)CC2)cc1 [Compound 9, (25R)-3-p-Toluenehydrazine-spirostan-4-ene]	52.5 ± 7.7 µM	marginal activity compared to diosgenone	56.1 ± 0.3 µM	–	1.1	148 to 150 °C	> 1170 µM	–
C[C@@H]1CC[C@@]2(OC1)O[C@H]1C[C@H]3[C@@H]4CCC56OC5C(=O)CC[C@]6(C)[C@H]4CC[C@]3(C)[C@H]1[C@@H]2C (stereo partly drawn) [Compound 10, (25R)-4,5-Epoxy-spirostan-3-one]	106 ± 7.7 µM	marginal activity compared to diosgenone	56.7 ± 6.3 µM	1.8	0.5	184 to 186 °C	101 µM	–
C[C@@H]1CC[C@@]2(OC1)O[C@H]1C[C@H]3[C@@H]4CCC5CC(=O)CC[C@]5(C)[C@H]4CC[C@]3(C)[C@H]1[C@@H]2C (stereo partly drawn) [Compound 11, (25R)-Spirostan-3-one]	> 482 µM	inactive against both P. falciparum strains	> 482 µM	–	–	–	–	CC50 at 48 h [1, 6]: > 916 µM
C[C@@H]1CC[C@@]2(OC1)O[C@H]1C[C@H]3[C@@H]4CCC5=CC(=O)C=C[C@]5(C)[C@H]4CC[C@]3(C)[C@H]1[C@@H]2C [Compound 12, (25R)-1,4-Spirostadien-3-one]	29.2 ± 1.1 µM	–	36 ± 2.3 µM	–	1.2	181 to 183 °C	> 487 µM	–
C[C@@H]1CC[C@@]2(OC1)O[C@H]1C[C@H]3[C@@H]4CCC5=CC(O)CC[C@]5(C)[C@H]4CC[C@]3(C)[C@H]1[C@@H]2C (stereo partly drawn) [Compound 13, (25R)-4-Spirosten-3-ol]	71.9 ± 0.3 µM	marginal activity compared to diosgenone	63.2 ± 0.3 µM	–	0.9	–	–	CC50 at 48 h [1, 6]: > 2410 µM
CC1CCC2(OC1)OC1(O)CC3C4CCC56OC5C(=O)CCC6(C)C4CCC3(C)C1C2C [Compound 14, (25R)-4,5-Epoxy-spirostan-16α-hydroxy-3-one]	8.5 ± 2.3 µM	–	10.1 ± 1.3 µM	15.2	1.2	145 to 147 °C	153 µM	reduction in parasitemia ([4]; 100 mg/kg oral, 4 daily doses): 36.7%
C[C@@H](CI)CCC(=O)[C@@H](C)[C@H]1C(=O)CC2C3CCC4=CC(=O)CC[C@]4(C)C3CC[C@@]21C (stereo partly drawn) [Compound 15, (25R)-26-Iodine-cholest-4-en-3,16,22-trione]	2.2 ± 0.4 µM	–	2.9 ± 0.3 µM	31.1	1.3	148 to 150 °C	90.2 µM	–
CC(=O)OC1CC[C@@]2(C)C(=CC[C@H]3[C@@H]4C[C@@H]5O[C@]6(CC[C@@H](C)CO6)[C@@H](C)[C@@H]5[C@@]4(C)CC[C@@H]32)C1 (stereo partly drawn) [Compound 16, (25R)-3-Acetoxy-spirostan-5-ene]	> 438 µM	neither active	> 438 µM	–	–	182 to 184 °C	> 2190 µM	cytotoxicity (in words) [5]: nor toxic
C[C@@H]1CC[C@@]2(OC1)O[C@H]1C[C@H]3[C@@H]4CC5OC56CC(O)CC[C@]6(C)[C@H]4CC[C@]3(C)[C@H]1[C@@H]2C (stereo partly drawn) [Compound 17, (25R)-5,6-Epoxy-spirostan-3-ol]	184 µM	neither active	> 409 µM	–	2.2	97 to 99 °C	> 2050 µM	cytotoxicity (in words) [5]: nor toxic
C[C@@H]1CC[C@@]2(OC1)O[C@H]1C[C@H]3[C@@H]4CC=C5C=CCC[C@]5(C)[C@H]4CC[C@]3(C)[C@H]1[C@@H]2C [Compound 19, (25R)-3,5-Spirostadiene]	370 ± 8.3 µM	neither active	438 ± 12 µM	–	1.2	–	–	CC50 at 48 h [1, 6]: > 2520 µM; cytotoxicity (in words) ([5]; HepG2-A16 cells): nor toxic
CC(=O)O[C@H]1CC[C@@]2(C)C(=CCC3C4C[C@H](OC(C)=O)C(C(C)C5=C(C(C)=O)C[C@@H](C)CO5)[C@@]4(C)CCC32)C1 (stereo partly drawn) [Compound 20, (25R)-23-Acetyl-3,16-diacetoxy-22,23-pyran-cholesta-5,22-diene]	> 380 µM	neither active	> 380 µM	–	–	–	> 1900 µM	cytotoxicity (in words) [5]: nor toxic
CC(=O)OC1C[C@H]2[C@@H]3CCC4=CC(=O)CC[C@]4(C)[C@H]3CC[C@]2(C)[C@H]1[C@H](C)C(=O)CC[C@@H](C)C=O (stereo partly drawn) [Compound 21, (25R)-16-Acetoxy-4-cholesten-3,22-dione-26-al]	70.8 ± 0.8 µM	–	92.2 ± 12.3 µM	4.6	1.3	–	424 µM	–
CC(=O)OC1C[C@H]2[C@@H]3CCC4CC(=O)CC[C@]4(C)[C@H]3CC[C@]2(C)[C@H]1[C@H](C)C(=O)CC[C@@H](C)CO (stereo partly drawn) [Compound 22, (25R)-16-Acetoxy-26-hydroxy-cholestan-3,22-dione]	62.1 ± 8.9 µM	–	94.2 ± 5.3 µM	0.9	1.5	–	82.4 µM	–
CC(=O)OC[C@H](C)CCC(=O)[C@@H](C)[C@H]1C(OC(C)=O)C[C@H]2[C@@H]3CCC4=CC(=O)CC[C@]4(C)[C@H]3CC[C@]12C (stereo partly drawn) [Compound 23, (25R)-16,26-Diacetoxy-4-cholesten-3,22-dione]	0.6 ± 0.9 µM	–	17.3 ± 1.4 µM	16.2	28.8	–	281 µM	cytotoxicity (in words) [5]: less toxic
CC(=O)OC1C[C@H]2[C@@H]3CCC4=CC(O)CC[C@]4(C)[C@H]3CC[C@]2(C)[C@H]1[C@H](C)C(O)CC[C@@H](C)CO (stereo partly drawn) [Compound 24, (25R)-16-Acetoxy-4-cholesten-3,22,26-triol]	101 ± 9.9 µM	–	95 ± 7.3 µM	3.2	0.9	144 to 146 °C	306 µM	–
C[C@H](C(=O)CC[C@@H](C)C=O)[C@H]1C(=O)C[C@H]2[C@@H]3CCC4=CC(=O)CC[C@]4(C)[C@H]3CC[C@]12C [Compound 25]	–	–	–	0.4	1.3	–	–	IC50 [2]: 95.9 ± 8.3 µM; CC50 at 48 h [1, 9]: 45.2 µM; IC50 [3, 7]: 123 ± 12.8 µM

From paper PMC6270258, “Diosgenone Synthesis, Anti-Malarial Activity and QSAR of Analogues of This Natural Product” (Molecules, 2013)
